Experimental data from US20260315434A1, “USE OF GUAIACOL SESQUITERPENE LACTONE DERIVATIVES” (NANJING UNIVERSITY OF CHINESE MEDICINE, priority 2023, published 2026).

Tests used:
4T1 cells = assay: Antitumor effect in 4T1 mouse mammary carcinoma xenograft model; assay type: in vivo, BALB/c mice; details: oral, 3 weeks, result in words
Protocol: 4T1 cells were cultured and expanded in vitro. […] A 100 μL aliquot of this suspension was injected subcutaneously into the left forelimb axilla of female BALB/c mice. […] Daily oral administration was performed for 3 weeks. During the treatment period, mouse body weight and tumor diameter were measured daily. At the end of the experiment, mice were euthanized by cervical dislocation, and tumors were removed for weighing. Tumor volume (TV) was calculated using the formula: TV=½×a×b^2, where a represents the longest diameter of the tumor and b represents the shortest diameter.

[1] = tested on: renal injury markers (Ngal, Havcr1) in kidney tissue; assay: Unilateral ureteral ligation (UUO) chronic kidney injury, renal injury marker mRNA; assay type: in vivo, C57BL/6 mice; parameters: unit not given here; details: UUO chronic model
Text: Chronic Kidney Injury: Mice were randomly divided into five groups. […] Except for the sham-operated mice in the normal group (where only the left ureter was exposed without further manipulation), all other mice underwent unilateral ureteral ligation to establish a chronic kidney injury model as follows: The abdominal skin was disinfected with iodine solution followed by alcohol. An incision was made, and the abdominal layers were dissected sequentially. The left ureter was fully exposed and dissected. A double ligation was performed at the bladder-proximal end of the left ureter using absorbable suture material, followed by closure.
(§1) The blood was allowed to stand at room temperature for 2 hours, then centrifuged at 3000 rpm for 20 minutes. Serum was aspirated, aliquoted, and stored at −70° C. for future use. Following blood collection, euthanize mice by cervical dislocation. Perform laparotomy to remove kidneys, dissect out perirenal fat and capsules. […] Paraffin-embedded specimens undergo HE staining; remaining tissue is stored at −70° C. for future use.

[2] = Conversion (release) of prodrug salts to parent compound in HEPES buffer pH 7.4; assay type: in vitro ADME; details: hepes buffer, pH 7.4, HEPES pH 7.4, 37 °C, read-out: Release rate (conversion to Compound 82)
Method in brief: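 Salt dissolved in water, mixed 1:1 with HEPES solution pH 7.4 (NaCl, KCl, Na2HPO4, glucose) and held at 37° C. At 1, 2, 4, 8 and 12 h, samples were methanol-quenched, centrifuged and analysed by reversed-phase HPLC at 210 nm, with peak areas recorded for conversion to parent compound.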

T cells = assay: Proportion of T cells in tumor and spleen of H22 xenograft mice (flow cytometry); assay type: in vivo, BALB/c mice
Protocol: Once all tumors were dissected, nail-sized tumor pieces were transferred to 1.5 mL Eppendorf tubes and minced with scissors. Transfer the minced tumor tissue suspension to a 15 mL centrifuge tube containing 3-5 mL of digestive enzymes (Collagenase IV 1 mg/mL, Hyaluronidase 1 mg/mL, DNase 120 U/mL). Incubate at 37° C. on a shaking incubator at 200 rpm for 1 hour. After digestion, pass the mixture through a 200-mesh sieve to obtain the tumor cell suspension. Centrifuge the resulting tumor suspension at 1600 rpm for 5 min, aspirate the supernatant, resuspend cells in 1 mL of 1×PBS per tube. Transfer the cell suspension to a 1.5 mL Eppendorf tube, centrifuge at 1600 rpm for 5 min, remove the supernatant, resuspend cells in 100 μL of 1×PBS per tube, add 1 μL of dead/live dye to each tube, mix thoroughly, and incubate at room temperature in the dark for 15 min. […] Position the spleen on a 200-mesh cell strainer. Gently press the spleen using a 10 mL syringe needle. […] Transfer the splenocyte suspension into a 15 mL centrifuge tube. Centrifuge at 1600 rpm for 5 min to collect cells. Wash once with 1×PBS. Add 3 mL red blood cell lysis buffer (diluted with ddH2O) to each tube and incubate for 5 min. After lysis, add 10 mL 1×PBS to each tube to terminate lysis. Centrifuge at 1600 rpm for 5 min. Add 1 mL 1×PBS to each 15 mL centrifuge tube, transfer to 1.5 mL EP tubes, and centrifuge at 1600 rpm for 5 min. Add 1×PBS to each tube containing stained tumor cells and lysed spleen cells for one wash, centrifuge at 1600 rpm for 5 min, and remove the supernatant. Resuspend tumor cells and spleen cells separately in 100 μL 1×PBS. Add 1 μL FcX™ antibody to each tube and incubate at room temperature in the dark for 10 min. After incubation, sequentially add 1 μL each of CD45, CD3, and CD8 antibodies to each tube. Incubate at 4° C. in the dark for 30 min. After staining, wash once with 1 mL PBS. Centrifuge at 1600 rpm for 5 min. Discard the supernatant. Resuspend cells in 300 μL 1×PBS. Filter the cell suspension into a flow cytometry tube and proceed to instrument analysis.

[3] = tested on: fibrosis-related factors (α-Sma, Col1a1, Tgfb1) in kidney tissue; assay: Folic acid-induced kidney injury, renal fibrosis-related factor mRNA; assay type: in vivo, C57BL/6 mice; details: folic acid model
Protocol: (§2) Except for the normal group, all other mice were administered folic acid (250 mg/kg) dissolved in 0.9% NaHCO3 solution via intraperitoneal injection to establish an acute kidney injury model.
as §1

H22 cells = assay: Antitumor effect in H22 mouse hepatocellular carcinoma subcutaneous xenograft model; assay type: in vivo, BALB/c mice; details: oral, 2 weeks
[4] = tested on: inflammatory cytokines (TNF, IL-6, IL-1) in renal tissue; assay: Folic acid-induced acute kidney injury, renal inflammatory factor mRNA; assay type: in vivo, C57BL/6 mice; details: folic acid acute model
Protocol: as §2, §1

CC1=C2CC[C@@](C)(OC(=O)N3CCCC3)[C@@H]2[C@H]2OC(=O)[C@@H](CN3CCCC3)[C@@H]2CC1 [Compound 103]
antitumor effect, 4T1 (4T1 cells): no significant antitumor effects | Havcr1 mRNA expression, kidney ([1]; 0.1 mg/kg oral): 117.81 ± 37.55 | Ngal mRNA expression, kidney ([1]; 0.1 mg/kg oral): 145.28 ± 50.31 | Havcr1 mRNA expression, kidney ([1]; 1 mg/kg oral): 88.33 ± 33.24 | Ngal mRNA expression, kidney ([1]; 1 mg/kg oral): 118.82 ± 38.60 | Havcr1 mRNA expression, kidney ([1]; 10 mg/kg oral): 93.99 ± 49.52 | Ngal mRNA expression, kidney ([1]; 10 mg/kg oral): 104.98 ± 18.55 | degraded at 1 h ([2]; 1 h): 6.4% | degraded at 2 h ([2]; 2 h): 14.2% | degraded at 4 h ([2]; 4 h): 26% | degraded at 8 h ([2]; 8 h): 45.6% | degraded at 12 h ([2]; 12 h): 52.6% | Spleen T cells (%) (T cells; 40 μmol/kg/day, oral, 2 weeks, spleen, flow cytometry): 34.22 ± 4.88 % | Tumor T cells (%) (T cells; 40 μmol/kg/day, oral, 2 weeks, tumor, flow cytometry): 27.62 ± 5.12 % | proportion of T cells in tumor tissues and spleens (T cells; compared with solvent control, result in words): significantly increased | Col1a1 mRNA expression, kidney ([3]; 0.1 mg/kg oral): 2.45 ± 0.63 | α-Sma mRNA expression, kidney ([3]; 0.1 mg/kg oral): 3.50 ± 1.91 | Col1a1 mRNA expression, kidney ([3]; 1 mg/kg oral): 2.25 ± 0.58 | α-Sma mRNA expression, kidney ([3]; 1 mg/kg oral): 3.03 ± 0.99 | Col1a1 mRNA expression, kidney ([3]; 10 mg/kg oral): 1.93 ± 0.41 | α-Sma mRNA expression, kidney ([3]; 10 mg/kg oral): 1.55 ± 0.61 | Tumor Suppression Rate (%) (H22 cells; 40 μmol/kg/day, H22 xenograft): 60.34% | Tumor weight (H22 cells; 40 μmol/kg/day, H22 xenograft): 5.02 ± 0.48 g | tumor-inhibiting effect, H22 (H22 cells; result in words): tumor-inhibiting effects | Il1 mRNA expression, kidney ([4]; 0.1 mg/kg oral): 2.83 ± 1.00 | Il6 mRNA expression, kidney ([4]; 0.1 mg/kg oral): 27.33 ± 11.81 | Il1 mRNA expression, kidney ([4]; 1 mg/kg oral): 2.79 ± 1.31 | Il6 mRNA expression, kidney ([4]; 1 mg/kg oral): 23.47 ± 6.54 | Il1 mRNA expression, kidney ([4]; 10 mg/kg oral): 1.65 ± 1.00 | Il6 mRNA expression, kidney ([4]; 10 mg/kg oral): 17.94 ± 9.61
